Values joined by “and” are separate entries in the source; they are usually repeats but may differ in a detail not shown here. Equal entries are not always repeated.
Key:
5-HT6R [1] = biological target: T1, 5-HT6R (Homo sapiens, UniProt P50406); assay: Radioligand binding, [3H]-LSD displacement, HEK-293 cells; parameters: expressed in transfected cells; settings: Table 1; HEK293 cells; three independent binding experiments; read-out: Ki [nM] ± SEM at the 5-HT6R
Description: All experiments were performed in HEK-293 cells, which stably express the human 5-HT1A, 5-HT6, 5-HT7b, and D2L receptors, or using CHO-K1 cells expressing human serotonin 5-HT2A receptor, following the previously reported procedures. For displacement studies, the following radioligands (PerkinElmer, USA) at given concentrations were used at: 2.5 nM [^3H]-8-OH-DPAT (135.2 Ci/ mmol); 1 nM [^3H]-ketanserin (53.4 Ci/mmol); 2 nM [^3H]-LSD (83.6 Ci/mmol); 0.8 nM [^3H]-5-CT (39.2 Ci/mmol) or 2.5 nM [^3H]-raclopride (76.0 Ci/mmol) for 5-HT1A, 5-HT2A, 5-HT6, 5-HT7b and D2L receptors, respectively. All tested compounds were evaluated in triplicate at 7 concentrations (10^−10–10^−4 M). The inhibition constants (Ki) were calculated from the Cheng–Prusoff equation [25]. A detailed description is reported in the Supporting Information.
All synthesized compounds were evaluated in ^3[H]-LSD competition binding experiments for their affinity for 5-HT6R expressed in HEK-293 cells (Table 1). Embedding the sulfonamide moiety into an unsubstituted isoindoline scaffold was sufficient to provide potent compounds 3a and 3e. […] This effect might result from the favorable localization of the bromine atom at the isoindoline fragment, which enabled compound 3k to adopt an optimal position in the receptor binding pocket via the formation of hydrophobic/steric interactions.
1. Procedure for radioligand binding assay
All experiments were carried out according to the previously published procedures. HEK293 cells stably expressing human 5-HT1A, 5-HT6, 5-HT7b and D2L receptors (prepared with the use of Lipofectamine 2000) or CHO-K1 cells with plasmid containing the sequence coding for the human serotonin 5-HT2A receptor (Perkin Elmer) were maintained at 37 °C in a humidified atmosphere containing 5% CO2 and grown in Dulbecco’s Modified Eagle’s Medium containing 10% dialyzed fetal bovine serum and 500 μg/ml G418 sulfate. For membrane preparation, cells were cultured in 150 cm2 flasks, grown to 90% confluence, washed twice with pre-warmed to 37 °C phosphate buffered saline (PBS) and centrifuged (200 × g) in PBS containing 0.1 mM EDTA and 1 mM dithiothreitol. Prior to membrane preparation, pellets were stored at –80 °C. Cell pellets were thawed and homogenized in 10 volumes of assay buffer using an Ultra Turrax tissue homogenizer and centrifuged twice at 35,000 × g for 15 min at 4 °C, with incubation for 15 min at 37 °C between the centrifugations. The composition of the assay buffers was experimentally selected to achieve the […]
5-HT1AR: 50 mM Tris HCl, 0.1 mM EDTA, 4 mM MgCl2, 10 μM pargyline and 0.1% ascorbate; 5-HT2AR: 50 mM Tris HCl, 0.1 mM EDTA, 4 mM MgCl2 and 0.1% ascorbate;
5-HT6R: 50 mM Tris HCl, 0.5 mM EDTA and 4 mM MgCl2; 5-HT7bR: 50 mM Tris HCl, 4 mM MgCl2, 10 μM pargyline and 0.1% ascorbate; D2LR: 50 mM Tris HCl, 1 mM EDTA, 4 mM MgCl2, 120 mM NaCl, 5 mM KCl, 1.5 mM CaCl2 and 0.1% ascorbate).
All assays were carried out in a total volume of 200 μL in 96-well plates for 1 h at 37 °C, except 5-HT1AR and 5-HT2AR which were incubated at room temperature and 27 °C, respectively.
The process of equilibration was terminated by rapid filtration through Unifilter plates with a 96-well cell harvester and radioactivity retained on the filters was quantified on a Microbeta plate reader (PerkinElmer, USA). For displacement studies the assay samples contained as radioligands (PerkinElmer, USA): 2.5 nM [3H]-8-OH-DPAT (135.2 Ci/ mmol) for 5-HT1AR; 1 nM [3H]-ketanserin (53.4 Ci/mmol) for 5-HT2AR; 2 nM [3H]-LSD (83.6 Ci/mmol) for 5-HT6R; 0.8 nM [3H]-5-CT (39.2 Ci/mmol) for 5-HT7R or 2.5 nM [3H]-raclopride (76.0 Ci/mmol) for D2LR. Non-specific binding was defined in the presence of 10 μM of 5-HT in 5-HT1AR and 5-HT7R binding experiments, 20 μM of mianserin for 5-HT2AR, 10 μM of methiothepine for 5-HT6R or 10 μM of haloperidol for D2LR bidning assays. Each compound was tested in triplicate at 7 concentrations (10-10–10-4 M). The inhibition constants (Ki) were calculated […]

C8-D1A astrocytes [2] = assay: Glioprotection against rotenone-induced cytotoxicity, MTT; format: cell-based, mouse; settings: compound 0.25 µM, rotenone 0.5 µM, 24 h
Description: (§1) Mouse astrocytes (C8-D1A cell line, ATCC) were cultured in DMEM (Dulbecco’s Modified Eagle’s Medium) supplemented with 10% FBS (FBS; Gibco, Life Technologies, Carlsbad, CA, USA) and 1% antibiotic mixture (Gibco, Life Technologies, Carlsbad, CA, USA) at standard condition until the cells reached 80–90% confluence. Cells were harvested and seeded in 96-well plates at a density of 5000 cells/well. All experiments were conducted with a reduced amount of serum equal to 2.5%. The optimal amount of serum was determined experimentally on the basis of preliminary studies. […] Then 6-OHDA (20 µM) or rotenone (0.5 µM) were added and co-incubated for the next 24 h. The ability of tested compounds to prevent 6-OHDA-induced or rotenone-induced cytotoxicity was assessed by MTT assay following the protocol described above. The experiments were run three times in triplicates.
(§2) Considering the pivotal physiological role of astrocytes in contrasting oxidative stress and promoting tissue repair, supporting their neuroprotective function might be regarded as a tangible strategy to improve the current therapeutic needs in the treatment of neurodegenerative disorders. […] For this purpose, cells were co-incubated with the evaluated compounds (at the non-toxic concentration of 0.25 µM) and 6-OHDA or ROT (20 and 0.5 µM, respectively). After 24 h of incubation, the viability of astrocytes was determined using the MTT assay.

C8-D1A astrocytes [3] = assay: Glioprotection against 6-OHDA-induced cytotoxicity, MTT; format: cell-based, mouse; settings: compound 0.25 µM, 6-OHDA 20 µM, 24 h
Description: as §1, §2

[4] = Cytotoxicity, MTT test, HepG2; format: cell-based; settings: human, HepG2 cells (human hepatocellular carcinoma)
Description: (§3) Hepatotoxicity, neurotoxicity, and glial cytotoxicity were investigated using the following cellular models: human hepatocellular carcinoma (HepG2), human neuroblastoma (SHSY-5Y), and mouse astrocytes (C8-D1A), all from ATCC (American Type Culture Collection, Manassas, VA, USA). Cells were cultured in appropriate culture media recommended by ATCC supplemented with 10% fetal bovine serum (FBS; Gibco, Life Technologies, Carlsbad, CA, USA) and 1% antibiotic mixture (Gibco, Life Technologies, Carlsbad, CA, USA). Cells were cultured at standard conditions (5% CO2, 95% humidity, 37 °C). For cytotoxicity experiments, cells were seeded into 96 well plates at an initial density of 2000 cells/well. After overnight incubation, cells were treated with 3e, 3f, and 3g in a concentration range of 0.78–50 µM for 48 h; then, an MTT assay was performed as described previously. Briefly, following cell exposure, 10 µL of MTT reagent was added to each well. After the next 4 h, the medium was aspirated, and formazan produced in cells appeared as dark crystals in the bottom of the wells. Next, 100 µL DMSO was added to each well. Then, the optical density of the solution (OD) at 570 nm was determined on a plate reader (Spectra Max iD3, Molecular Devices, San Jose, CA, USA). The experiments were run three times in triplicates.

[5] = Cytotoxicity, MTT test, SH-SY5Y; format: cell-based; settings: human, SH-SY5Y cells (human neuroblastoma)
Description: as §3

[6] = Cytotoxicity, MTT test, C8-D1A; format: cell-based; settings: mouse, C8-D1A cells (mouse astrocytes)
Description: as §3

5-HT6R [7] = biological target: T1, 5-HT6R; parameters: expressed in transfected cells; host or cells: NG108-15 (mouse neuroblastoma x rat glioma hybrid), transient co-transfection with CAMYEL, Lipofectamine 2000; settings: Figure 1; cited from earlier work
[8] = tested on: 5-HT6R-operated Cdk5 signaling; settings: Figure 1; cited from earlier work

T1 sequence (P50406 whole entry): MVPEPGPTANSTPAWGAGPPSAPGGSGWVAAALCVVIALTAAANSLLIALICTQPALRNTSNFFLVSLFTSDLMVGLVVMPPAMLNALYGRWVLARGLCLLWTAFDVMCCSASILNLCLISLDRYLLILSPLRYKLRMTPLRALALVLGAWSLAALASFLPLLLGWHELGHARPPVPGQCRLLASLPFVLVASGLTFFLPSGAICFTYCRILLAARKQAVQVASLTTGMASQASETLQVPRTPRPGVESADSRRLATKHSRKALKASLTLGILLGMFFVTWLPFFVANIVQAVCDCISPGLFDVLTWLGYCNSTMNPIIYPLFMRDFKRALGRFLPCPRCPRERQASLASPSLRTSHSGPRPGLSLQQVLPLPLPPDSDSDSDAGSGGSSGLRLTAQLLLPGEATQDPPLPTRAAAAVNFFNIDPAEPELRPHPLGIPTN

Ki (5-HT6R [1]) | SMILES | also measured
6 ± 1 nM | O=S(=O)(c1ccc(N2CCNCC2)cc1)N1Cc2ccccc2C1 [3a, 2-{[4-(Piperazin-1-yl)phenyl]sulfonyl}isoindoline] | –
87 ± 12 nM | O=S(=O)(c1ccc(N2CCNCC2)cc1)N1Cc2ccc(Br)cc2C1 [3d, 5-Bromo-2-{[4-(piperazin-1-yl)phenyl]sulfonyl}isoindoline] | –
< 5 nM and 4 nM | O=S(=O)(c1cccc(N2CCNCC2)c1)N1Cc2ccc(Br)cc2C1 [3h, 5-Bromo-2-{[3-(piperazin-1-yl)phenyl]sulfonyl}isoindoline] | –
> 900 nM and 977 nM | O=S(=O)(c1ccccc1N1CCNCC1)N1Cc2ccccc2C1 [3i, 2-{[2-(Piperazin-1-yl)phenyl]sulfonyl}isoindoline] | –
> 900 nM and 918 nM | O=S(=O)(c1ccccc1N1CCNCC1)N1Cc2cccc(Cl)c2C1 [3j, 4-Chloro-2-{[2-(piperazin-1-yl)phenyl]sulfonyl}isoindoline] | –
32 ± 5 nM | O=S(=O)(c1ccccc1N1CCNCC1)N1Cc2cccc(Br)c2C1 [3k, 4-Bromo-2-{[2-(piperazin-1-yl)phenyl]sulfonyl}isoindoline] | –
> 900 nM and 1170 nM | O=S(=O)(c1ccccc1N1CCNCC1)N1Cc2ccc(Br)cc2C1 [3l, 5-Bromo-2-{[2-(piperazin-1-yl)phenyl]sulfonyl}isoindoline] | –

Second part, the molecule before the results:

SMILES | Ki (5-HT6R [1]) | also measured
O=S(=O)(c1ccc(N2CCNCC2)cc1)N1Cc2cccc(Cl)c2C1 [3b, 4-Chloro-2-{[4-(piperazin-1-yl)phenyl]sulfonyl}isoindoline] | 7 ± 1 nM | –
O=S(=O)(c1ccc(N2CCNCC2)cc1)N1Cc2cccc(Br)c2C1 [3c, 4-Bromo-2-{[4-(piperazin-1-yl)phenyl]sulfonyl}isoindoline] | 10 ± 2 nM | –
O=S(=O)(c1cccc(Cl)c1)n1ccc2c(N[C@H]3CCNC3)nc3ccccc3c21 [CPPQ, (S)-1-[(3-chlorophenyl)sulfonyl]-4-(pyrrolidine-3-yl-amino)-1H-pyrrolo[3,2-c]quinoline] | – | effect on ROT-induced cytotoxicity (C8-D1A astrocytes [2]): decreased the cytotoxicity; effect on 6-OHDA-induced cytotoxicity (C8-D1A astrocytes [3]): decreased the cytotoxicity
COc1cccc2c1C(=O)c1c(O)c3c(c(O)c1C2=O)C[C@@](O)(C(=O)CO)C[C@@H]3O[C@H]1C[C@H](N)[C@H](O)[C@H](C)O1 [Doxorubicin, reference compound] | – | IC50 at 48 h [4]: 10800 nM; IC50 at 48 h [5]: 4400 nM; IC50 at 48 h [6]: 12300 nM
O=C(N[C@@H]1CCNC1)c1ccn(S(=O)(=O)c2cccc(Cl)c2)c1-c1ccc(F)cc1 [I] | – | Functional profile at Gs (5-HT6R [7]): Inverse agonist; Functional profile at Cdk5 [8]: Inverse agonist
NCCc1cn(S(=O)(=O)c2c(Cl)nc3sccn23)c2ccccc12 [WAY-181187] | – | effect on ROT-induced cytotoxicity (C8-D1A astrocytes [2]): slightly but not significantly enhanced the gliotoxic effects; effect on 6-OHDA-induced cytotoxicity (C8-D1A astrocytes [3]): slightly but not significantly enhanced the gliotoxic effects
